Literature values in patent US20170326147A1, “INHIBITING BLOOD PRESSURE DROP IN THE TREATMENT OF ERECTILE DYSFUNCTION” (FORMUREX, INC., priority 2014, published 2017).
Structures can show the parent of a compound that is named as a salt.

Tests used:
[1] = system: plasma proteins; conditions: independent of total drug concentration

bound to plasma proteins [1] | Tmax average, fasting subjects (fasting) | delay of mean Tmax by food in the stomach (fed) | bioavailability (mean absolute), oral administration (oral, absorption through the digestive tract) | SMILES
approximately 96% | – | – | – | CCCc1nn(C)c2c(=O)[nH]c(-c3cc(S(=O)(=O)N4CCNCC4)ccc3OCC)nc12 [N-desmethyl metabolite, N-desmethyl sildenafil]
approximately 96% | about 1 hr | about 1.1 hr | about 40% | CCCc1nn(C)c2c(=O)[nH]c(-c3cc(S(=O)(=O)N4CCN(C)CC4)ccc3OCC)nc12 [sildenafil citrate]
